According to patent publication US7989460B2, “Quinazoline derivatives as angiogenesis inhibitors” (AstraZeneca AB, priority 2003, dated 2011):
pIC50: −log10 of the molar value.

Key:
[1] = biological target: T1, human ether-a-go-go-related-gene (hERG)-encoded potassium channel (Homo sapiens, UniProt Q12809); assay: hERG-encoded potassium channel inhibition test (d); format: cell-based; settings: HEK cells expressing hERG-encoded channel, tail current, whole cell patch clamp
T1 construct: expressed in transfected cells; host or cells: Human embryonic kidney (HEK) cells
T1 sequence (Q12809 whole entry): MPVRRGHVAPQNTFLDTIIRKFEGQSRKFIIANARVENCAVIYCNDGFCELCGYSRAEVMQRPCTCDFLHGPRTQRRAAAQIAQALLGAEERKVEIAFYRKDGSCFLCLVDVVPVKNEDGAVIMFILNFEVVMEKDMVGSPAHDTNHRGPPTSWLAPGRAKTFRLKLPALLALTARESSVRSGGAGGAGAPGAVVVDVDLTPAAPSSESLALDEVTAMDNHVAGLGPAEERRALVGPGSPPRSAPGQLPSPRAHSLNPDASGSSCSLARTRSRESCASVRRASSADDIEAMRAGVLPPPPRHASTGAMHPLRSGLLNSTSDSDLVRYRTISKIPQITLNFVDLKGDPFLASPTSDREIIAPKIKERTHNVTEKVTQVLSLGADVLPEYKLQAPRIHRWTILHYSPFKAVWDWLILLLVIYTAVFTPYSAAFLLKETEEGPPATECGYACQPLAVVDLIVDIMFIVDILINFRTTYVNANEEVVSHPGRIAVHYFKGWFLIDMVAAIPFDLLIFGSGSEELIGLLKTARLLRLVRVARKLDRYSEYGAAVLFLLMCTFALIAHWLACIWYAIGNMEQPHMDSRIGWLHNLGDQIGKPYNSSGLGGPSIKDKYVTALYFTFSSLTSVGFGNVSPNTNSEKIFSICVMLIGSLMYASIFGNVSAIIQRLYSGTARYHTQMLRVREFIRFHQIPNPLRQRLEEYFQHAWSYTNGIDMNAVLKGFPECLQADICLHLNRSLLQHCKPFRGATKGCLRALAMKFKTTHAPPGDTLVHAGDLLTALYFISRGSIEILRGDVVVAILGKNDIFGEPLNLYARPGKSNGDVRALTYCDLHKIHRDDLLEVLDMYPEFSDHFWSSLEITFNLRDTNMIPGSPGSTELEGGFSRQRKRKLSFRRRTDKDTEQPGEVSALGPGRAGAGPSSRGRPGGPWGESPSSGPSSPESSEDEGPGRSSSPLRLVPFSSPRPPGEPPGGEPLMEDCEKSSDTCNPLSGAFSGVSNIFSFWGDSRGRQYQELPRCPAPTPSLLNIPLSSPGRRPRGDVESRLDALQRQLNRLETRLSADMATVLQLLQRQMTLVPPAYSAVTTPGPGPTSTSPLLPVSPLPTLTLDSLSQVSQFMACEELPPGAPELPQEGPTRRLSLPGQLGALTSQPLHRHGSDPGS
Method: d) hERG-encoded Potassium Channel Inhibition Test
This assay determines the ability of a test compound to inhibit the tail current flowing through the human ether-a-go-go-related-gene (hERG)-encoded potassium channel.
Human embryonic kidney (HEK) cells expressing the hERG-encoded channel were grown in Minimum Essential Medium Eagle (EMEM; Sigma-Aldrich catalogue number M2279), supplemented with 10% Foetal Calf Serum (Labtech International; product number 4-101-500), 10% M1 serum-free supplement (Egg Technologies; product number 70916) and 0.4 mg/ml Geneticin G418 (Sigma-Aldrich; catalogue number G7034). […]
For each cell recorded, a glass coverslip containing the cells was placed at the bottom of a Perspex chamber containing bath solution (see below) at ambient temperature ([…]). […]
The cell was recorded in the whole cell configuration of the patch clamp technique. […]
The amplitude of the hERG-encoded potassium channel tail current following the step from +40 mV to −50 mV was recorded on-line by Clampex software (Axon Instruments). […]
The effect of each concentration of test compound was quantified by expressing the tail current amplitude in the presence of a given concentration of test compound as a percentage of that in the presence of vehicle. […]

KDR = biological target: T2, KDR (Homo sapiens, UniProt P35968); assay: In vitro receptor tyrosine kinase inhibition test (a), enzyme assay against KDR; format: biochemical; settings: KDR cytoplasmic domain
T2 construct: made in house; host or cells: insect cells (Spodoptera frugiperda Sf21, baculovirus)
T2 sequence (P35968 786-1356 limits assumed): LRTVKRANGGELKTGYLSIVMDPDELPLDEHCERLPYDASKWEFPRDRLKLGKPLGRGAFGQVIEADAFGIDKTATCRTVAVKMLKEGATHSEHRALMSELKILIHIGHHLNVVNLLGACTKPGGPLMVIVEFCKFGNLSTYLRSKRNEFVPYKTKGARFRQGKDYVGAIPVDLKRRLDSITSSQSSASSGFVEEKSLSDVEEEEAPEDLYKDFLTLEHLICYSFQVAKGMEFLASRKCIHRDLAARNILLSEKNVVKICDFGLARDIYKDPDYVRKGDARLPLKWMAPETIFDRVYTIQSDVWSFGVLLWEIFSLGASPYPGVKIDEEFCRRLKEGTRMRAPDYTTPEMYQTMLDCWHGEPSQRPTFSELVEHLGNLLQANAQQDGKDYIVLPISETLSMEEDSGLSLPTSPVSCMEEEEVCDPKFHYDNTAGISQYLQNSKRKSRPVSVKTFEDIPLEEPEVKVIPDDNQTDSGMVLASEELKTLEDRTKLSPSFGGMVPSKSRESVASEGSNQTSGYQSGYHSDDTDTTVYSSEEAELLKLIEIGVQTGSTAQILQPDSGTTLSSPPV
Source text: (a) In Vitro Receptor Tyrosine Kinase Inhibition Test
This assay determines the ability of a test compound to inhibit tyrosine kinase activity. DNA encoding VEGF, FGF or EGF receptor cytoplasmic domains may be obtained by total gene synthesis (Edwards M, International Biotechnology Lab 5(3), 19-25, 1987) or by cloning. These may then be expressed in a suitable expression system to obtain polypeptide with tyrosine kinase activity. […] In the case of the VEGF receptor Flt-1 (Genbank accession number X51602), a 1.7 kb DNA fragment encoding most of the cytoplasmic domain, commencing with methionine 783 and including the termination codon, described by Shibuya et al (Oncogene, 1990, 5: 519-524), was isolated from cDNA and cloned into a baculovirus transplacement vector (for example pAcYM1 (see The Baculovirus Expression System: A Laboratory Guide, L. A. King and R. D. Possee, Chapman and Hall, 1992) or pAc360 or pBlueBacHis (available from Invitrogen Corporation)). This recombinant construct was co-transfected into insect cells (for example Spodoptera frugiperda 21(5f21)) with viral DNA (eg Pharmingen BaculoGold) to prepare recombinant baculovirus. […]

- pIC50 (KDR): 6.98
SMILES: COc1cc2c(Oc3ccc4[nH]c(C)c(C)c4c3)ncnc2cc1OCCN1CCN(CC(C)=O)CC1 [Example 11, 7-{2-[4-(acetylmethyl)piperazin-1-yl]ethoxy}-4-[(2,3-dimethyl-1H-indol-5-yl)oxy]-6-methoxyquinazoline]
- pIC50 [1]: 5.00
